From patent US8980587B2, “Process for producing reveromycin A or a synthetic intermediate thereof, process for producing compounds containing a spiroketal ring and novel antineoplastics, fungicides and therapeutic agents for bone disorders” (RIKEN, priority 2010, dated 2015)
Converted amounts (≈) assume the structure as drawn. Read-outs that look alike come from different tables or passages of the source.

Experiments:
[1] = tested on: Budding yeast (MLC30M strain); assay: Growth-inhibiting activity against yeast; assay type: cell-based; conditions: for IC50: Saccharomyces cerevisiae, read-out: Yeast IC50
Experimental: Budding yeast (MLC30M strain) was precultured in a culture medium of 2% Polypeptone, 1% yeast extract, 2% glucose, 0.02% adenine, and 0.001% sodium dodecyl sulfate (SDS) at 30° C. Absorbance at 600 nm was measured, and yeast solution was prepared such that the absorbance is 0.05 and seeded 100 μl each in a 96-well plate. Each of the agents in Table 5 was added at 0.5% (v/v) and maintained at 30° C. Eighteen hours after addition of the agent, absorbance at 600 nm was measured using a microplate reader (manufactured by PerkinElmer) and a proliferation rate was determined from the measurement value.

[2] = target: T1, Isoleucyl tRNA synthetase (Homo sapiens, UniProt P41252); assay: Inhibitory activity against isoleucyl tRNA synthetase; assay type: biochemical; conditions: for IC50: HT1080 cell lysate, [3H]isoleucine, 25° C., 20 minutes, read-out: IRS IC50 (converted)
T1 construct: 10 μg protein (HT1080 cell lysate); endogenous in cells; host or cells: HT1080 cell lysate
T1 sequence (P41252 1-1262): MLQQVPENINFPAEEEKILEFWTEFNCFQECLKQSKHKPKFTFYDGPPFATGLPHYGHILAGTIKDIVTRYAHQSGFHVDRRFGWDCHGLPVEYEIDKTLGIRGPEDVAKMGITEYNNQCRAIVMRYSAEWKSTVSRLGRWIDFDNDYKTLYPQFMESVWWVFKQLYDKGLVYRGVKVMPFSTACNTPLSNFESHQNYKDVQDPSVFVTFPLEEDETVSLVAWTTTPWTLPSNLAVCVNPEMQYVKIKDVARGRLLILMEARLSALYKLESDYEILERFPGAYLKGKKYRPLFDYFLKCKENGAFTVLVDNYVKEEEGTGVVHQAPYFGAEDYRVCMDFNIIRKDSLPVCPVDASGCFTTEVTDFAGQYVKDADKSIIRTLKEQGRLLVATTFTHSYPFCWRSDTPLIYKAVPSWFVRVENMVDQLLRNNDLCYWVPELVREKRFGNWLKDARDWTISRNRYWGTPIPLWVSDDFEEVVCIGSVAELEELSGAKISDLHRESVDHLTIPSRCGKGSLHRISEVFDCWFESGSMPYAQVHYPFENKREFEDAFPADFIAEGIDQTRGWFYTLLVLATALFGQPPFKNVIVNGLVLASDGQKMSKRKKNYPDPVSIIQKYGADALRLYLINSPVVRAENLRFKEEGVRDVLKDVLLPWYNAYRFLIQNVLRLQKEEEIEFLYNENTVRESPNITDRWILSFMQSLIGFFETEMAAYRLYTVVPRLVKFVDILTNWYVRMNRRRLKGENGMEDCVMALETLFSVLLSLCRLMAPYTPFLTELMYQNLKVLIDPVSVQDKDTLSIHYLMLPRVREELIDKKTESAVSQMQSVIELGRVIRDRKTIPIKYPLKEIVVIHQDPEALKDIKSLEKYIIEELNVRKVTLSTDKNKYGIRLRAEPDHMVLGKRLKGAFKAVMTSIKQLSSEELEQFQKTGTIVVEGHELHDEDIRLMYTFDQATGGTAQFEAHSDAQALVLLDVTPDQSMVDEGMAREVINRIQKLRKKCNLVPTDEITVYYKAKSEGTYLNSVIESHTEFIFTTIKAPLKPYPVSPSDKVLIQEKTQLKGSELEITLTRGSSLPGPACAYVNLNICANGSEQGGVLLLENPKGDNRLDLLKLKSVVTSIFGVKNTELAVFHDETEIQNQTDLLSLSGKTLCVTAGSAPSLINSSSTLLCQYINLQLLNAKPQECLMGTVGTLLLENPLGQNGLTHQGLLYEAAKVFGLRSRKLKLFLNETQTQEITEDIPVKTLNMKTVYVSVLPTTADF
Experimental: To a solution for enzymatic reaction [20 mM imidazole, pH 7.5, 75 mM MgCl2, 0.5 mM DTT, 1 U/ml tRNA (E. coli origin, manufactured by Sigma), 3 mM ATP, 1 μM isoleucine, 10 μCi/ml [^3H]isoleucine (manufactured by GE Healthcare), 10 μg protein (HT1080 cell lysate)], each of the agents in Table 5 was added at 1% (v/v) so as to attain a total amount of 100 μl and a reaction was carried out at 25° C. for 20 minutes. One mg/ml BSA solution (400 μl) and 10% TCA solution (500 μl) were then added thereto to terminate the reaction and left to stand at 4° C. overnight. A precipitate obtained by a centrifugal operation was transferred onto GF-C filter (manufactured by Whatman), washed three times with 5% TCA solution, followed by drying the filter. Two milliliters of aquasol-2 (manufactured by PerkinElmer) and the filter were placed in a vial and vigorously stirred, and then the amount of [^3H]isoleucine was measured by a liquid scintillation counter (manufactured by Beckman) to determine a rate of enzyme activity.

[3] = tested on: osteoclasts; assay: Growth inhibitory activity against osteoclast (TRAP positive multinucleated cell count); assay type: cell-based, mouse; conditions: for IC50: Osteoclast, read-out: OC IC50
Experimental: Bone marrow cells were harvested from thigh bone and shin bone of five-week male ddY mouse (manufactured by Japan SLC, Inc.), seeded in a type I collagen coated plate (manufactured by IWAKI) in a culture medium in which α-MEM medium (manufactured by Sigma-Aldrich) was added with 10% fetal bovine serum, 0.5% penicillin/streptomycin solution, 50 ng/ml human M-CSF (Leukoprol, manufactured by Kyowa Hakko), and 1 ng/ml human TGF-β1 (manufactured by R&D Systems), and maintained at 37° C. under a humidified culture of 5% CO2 for 3 days. Cells were then washed twice with PBS and then cells adhered on the plate were used as bone marrow macrophage cells. Bone marrow macrophage cells were further maintained in a culture medium in which α-MEM medium was added with 10% fetal-bovine serum, 0.5% penicillin/streptomycin solution, 50 ng/ml human M-CSF, 50 ng/ml human soluble RANKL (manufactured by Peprotech) at 37° C. under a humidified culture of 5% CO2 for 3 days to differentiate into osteoclasts.
Each of the agents in Table 5 was added to osteoclasts at 0.5% (v/v) and maintained at 37° C. under a humidified culture of 5% CO2 for 24 hours. Subsequently, cells were treated with PBS solution containing 3.7% formalin at room temperature for 30 minutes. After the solution was removed, the cells were further treated with acetone/ethanol solution (1:1 vol/vol) at room temperature for one minute and the solution was removed to dry the cells. Immobilized cells were subjected to a reaction in TRAP solution [50 mM sodium tartrate, 90 mM sodium acetate, 0.01% naphthol AS-MX phosphate (manufactured by Sigma), 0.05% fast red violet LB salt (manufactured by Sigma), pH 5.0] at room temperature for 30 minutes and then washed with distilled water. The number of TRAP positive multinucleated osteoclasts was counted and a rate of survival was determined.

[4] = tested on: osteoclasts; conditions: background art, Patent Document 1; cited from earlier work
[5] = tested on: bone metastasis of tumors; conditions: background art, Patent Document 1; cited from earlier work

`CCCC[C@H]1CC[C@]2(CC[C@H](C)[C@@H](C/C=C(C)/C=C/[C@H](O)[C@@H](C)/C=C/C(=O)OCC)O2)O[C@H]1/C=C/C(C)=C/C(=O)O` [RM-T ethyl-ester] gave an IC50 ([1]; MLC30M strain, 18 hours, absorbance at 600 nm) of over 50 µg/mL, an IC50 [2] of 349 nM and an IC50 ([3]; mouse bone marrow derived osteoclasts, 24 hours, rate of survival) of 6 µg/mL (≈ 10.5 µM).
In the case of `CCCCCC[C@@]1(OC(=O)CCC(=O)O)CC[C@]2(CC[C@H](C)[C@@H](C/C=C(C)/C=C/[C@H](O)[C@@H](C)/C=C/C(=O)O)O2)O[C@H]1/C=C/C(C)=C/C(=O)O` [RM-E], the IC50 ([1]; 18 h) is reported as 2.3 µg/mL (≈ 3.34 µM), the IC50 [2] is reported as 4.06 nM and the IC50 ([3]; Mus musculus, 24 h) is reported as 0.1 µg/mL (≈ 0.145 µM). The “growth inhibiting actions against osteoclast (in words)” value ([3]; summary of Table 5) was “exhibited growth inhibiting actions against osteoclast”.
In the case of `CCCC[C@@]1(OC(=O)CCC(=O)O)CC[C@]2(CC[C@H](C)[C@@H](C/C=C(C)/C=C/[C@H](O)[C@@H](C)/C=C/C(=O)O)O2)O[C@H]1/C=C/C(C)=C/C(=O)O` [RM-A, Reveromycin A], the IC50 ([1]; 18 h) is listed as 4.3 µg/mL (≈ 6.51 µM), the “apoptosis of osteoclasts (in words)” value [4] is listed as “induce apoptosis selectively for osteoclasts at low concentrations” and the IC50 [2] is listed as 9.38 nM. The IC50 ([3]; Mus musculus, 24 h) was 0.06 µg/mL (≈ 0.0908 µM) and the “bone metastasis of tumors (in words)” value [5] was “suppress bone metastasis of tumors”.
For `CCCCC1CCC2(CCC(C)C(C/C=C(C)/C=C/C(O)C(C)/C=C/C(=O)O)O2)OC1/C=C/C(C)=C/C(=O)O` (centres unmarked) [RM-T], the IC50 ([1]; 18 h) was 0.05 µg/mL (≈ 0.0918 µM), the “growth-inhibiting activity against yeast (in words)” value ([1]; summary of Table 5) was “exhibited growth-inhibiting activity against yeast” and the IC50 [2] was 0.367 nM. The “enzyme inhibiting activity against the target molecule IRS (in words)” value ([2]; as compared with RM-A) was “higher” and the IC50 ([3]; Mus musculus, 24 h) was 6.2 µg/mL (≈ 11.4 µM).
